Where two headings read alike, the source gives them in different places.
Legend:
human 5-HT1E receptor = target: T1, human 5-HT1E receptor (Homo sapiens, UniProt P28566); assay: R-SAT assay 5-HT1E; format: cell-based; conditions: Table 3, 5-HT1E
T1 construct: expressed in transfected cells; host or cells: NIH/3T3

human 5-HT1F receptor = target: T2, human 5-HT1F receptor (Homo sapiens, UniProt P30939); assay: R-SAT assay 5-HT1F; format: cell-based; conditions: Table 3, 5-HT1F
T2 construct: expressed in transfected cells; host or cells: NIH/3T3
T2 sequence (P30939 1-366): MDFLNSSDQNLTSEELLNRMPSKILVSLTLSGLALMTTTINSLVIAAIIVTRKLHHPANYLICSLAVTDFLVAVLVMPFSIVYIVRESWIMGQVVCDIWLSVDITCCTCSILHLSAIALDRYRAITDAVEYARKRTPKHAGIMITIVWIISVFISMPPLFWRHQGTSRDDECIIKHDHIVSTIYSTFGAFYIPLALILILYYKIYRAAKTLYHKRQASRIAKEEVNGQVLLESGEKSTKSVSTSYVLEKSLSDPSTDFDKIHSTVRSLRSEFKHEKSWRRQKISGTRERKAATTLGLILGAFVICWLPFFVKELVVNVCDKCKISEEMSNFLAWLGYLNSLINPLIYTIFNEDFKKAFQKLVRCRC

human 5-HT2A receptors [1] = target: T3, human 5-HT2A receptors (Homo sapiens, UniProt P28223); assay: R-SAT functional assay at 5-HT2A; format: cell-based; design: expressed in transfected cells; host or cells: NIH-3T3
D2 receptors [2] = target: T4, D2 receptors (Homo sapiens, UniProt P14416); assay: R-SAT functional assay at D2; format: cell-based; design: expressed in transfected cells; host or cells: NIH-3T3
D2 receptors [3] = target: T4, D2 receptors; assay: GTPγS binding assay at D2; format: biochemical; design: expressed in transfected cells
Experimental: Cells were not centrifuged following cell scraping, but were collected directly into the ice-cold nitrogen cavitation chamber.
50 μl/well Wheat-Germ Agglutinin SPA beads (Perkin Elmer, Shelton, Conn.) were added to the plates and the plates incubated for 1 hour. The plates were then centrifuged at 1,000×g for 10 minutes and read on a Top Count NXT (Perkin Elmer, Shelton, Conn.).
To relate the results observed in R-SAT™ to a more conventional assay system, these ligands were also tested for the ability to induce GTPγS binding through D2 receptors.

human 5-HT2A receptors [4] = target: T3, human 5-HT2A receptors; assay: BRET2 beta-arrestin-2 recruitment assay at 5-HT2A; format: cell-based; design: expressed in transfected cells; host or cells: HEK-293T
Experimental: (§1) BRET-2 signals were measured using the multiplate reader Mithras 940LB (Berthold Technologies, Bad Wildbad, Germany) and were calculated as the ratio between the Renilla luciferase emission and the GFP2 emission corrected by the background emissions of non-transfected cells.

D2 receptors [5] = target: T4, D2 receptors; assay: BRET2 beta-arrestin-2 recruitment assay at D2; format: cell-based; design: expressed in transfected cells; host or cells: HEK-293T
Experimental: as §1
Each curve is representative of two to three independent experiments.

human 5-HT2A receptors [6] = target: T3, human 5-HT2A receptors; assay: Phosphatidyl inositol (PI) hydrolysis assay at 5-HT2A; format: cell-based; design: expressed in transfected cells; conditions: mean ± SEM
Experimental: After lysing the cells with 50 μl of 0.1M formic acid, 20 μl each cell lysate was mixed with 80 μl (1 mg) RNA Binding YSi-SPA beads (GE Healthcare, Chalfont St. Giles, UK) on PICO plates (PerkinElmer) and counted on a TopCount (Packard).
Each curve is representative of at least three or more independent experiments.

[7] = test system: reserpine-pretreated mice; assay: Motor activity in monoamine-depleted (reserpine-pretreated) mice, video tracking; conditions: for antagonism of motor stimulation induced by (+)-OSU6162 250 μmol/kg ip / antagonism of motor stimulation induced by (−)-OSU6162 250 μmol/kg ip: reserpine-pretreated mice, haloperidol 1 mg/kg ip, raclopride 20 mg/kg sc, M100907 1 mg/kg ip, SCH23390 0.3 mg/kg sc, SCH39166 0.1-0.9 mg/kg sc
drug naive mice = assay: Head twitch induction in mice; format: in vivo; conditions: DOI 1 mg/kg ip, OSU6162 enantiomers 9.375-300 μmol/kg ip, 10 min before registration
Experimental: The animals used in the head twitch experiments were individually placed in Macrolon type II cages and allowed to habituate to these test cages during 30 minutes before the video registration of behavior began. […] The animals were videotaped for 10 minutes; the behavior was scored during the first 5 minutes. The number of head twitches was counted from the videotapes by a person blind to the treatment.
In FIG. 5, the number of head twitches produced during 5 minutes is shown. The mice were habituated to the test cages during 30 minutes before the video registration of behavior began. […] Shown are means and SEM, n=6-12.

human H1 receptor = target: T5, human H1 receptor (Homo sapiens, UniProt P35367); assay: R-SAT assay H1; format: cell-based; conditions: Table 3, H1; percent response of reference Histamine
T5 construct: expressed in transfected cells; host or cells: NIH/3T3

[8] = negative logarithm of EC50 in molar
[9] = percent response of reference BRL 54443
[10] = percent response of reference ligand dopamine, mean ± SEM

T3 sequence (P28223 whole entry): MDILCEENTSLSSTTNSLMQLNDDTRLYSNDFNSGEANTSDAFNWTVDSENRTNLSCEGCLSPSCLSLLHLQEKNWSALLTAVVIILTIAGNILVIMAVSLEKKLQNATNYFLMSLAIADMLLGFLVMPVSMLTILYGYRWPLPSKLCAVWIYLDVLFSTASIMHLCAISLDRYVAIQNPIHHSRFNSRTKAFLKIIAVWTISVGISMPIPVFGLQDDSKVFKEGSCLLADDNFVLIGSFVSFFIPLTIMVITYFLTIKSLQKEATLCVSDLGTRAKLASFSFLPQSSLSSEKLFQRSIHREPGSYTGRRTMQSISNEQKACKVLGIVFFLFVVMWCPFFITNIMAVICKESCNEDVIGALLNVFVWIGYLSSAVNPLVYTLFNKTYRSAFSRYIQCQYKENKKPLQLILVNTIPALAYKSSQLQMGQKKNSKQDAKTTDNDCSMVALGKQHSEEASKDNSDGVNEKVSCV
T4 sequence (P14416 1-414 isoform P14416-2): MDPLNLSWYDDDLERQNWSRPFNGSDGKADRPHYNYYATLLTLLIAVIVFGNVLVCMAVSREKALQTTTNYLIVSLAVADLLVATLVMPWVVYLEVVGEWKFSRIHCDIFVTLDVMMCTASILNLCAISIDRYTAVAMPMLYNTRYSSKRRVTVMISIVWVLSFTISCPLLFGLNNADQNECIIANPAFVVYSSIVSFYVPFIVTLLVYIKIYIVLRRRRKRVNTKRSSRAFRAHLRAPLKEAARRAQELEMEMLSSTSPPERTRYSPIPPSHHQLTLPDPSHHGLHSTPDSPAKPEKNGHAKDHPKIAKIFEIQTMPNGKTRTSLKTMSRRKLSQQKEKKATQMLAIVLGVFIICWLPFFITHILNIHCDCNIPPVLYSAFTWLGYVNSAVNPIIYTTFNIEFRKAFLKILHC
T1 sequence (P28566 whole entry): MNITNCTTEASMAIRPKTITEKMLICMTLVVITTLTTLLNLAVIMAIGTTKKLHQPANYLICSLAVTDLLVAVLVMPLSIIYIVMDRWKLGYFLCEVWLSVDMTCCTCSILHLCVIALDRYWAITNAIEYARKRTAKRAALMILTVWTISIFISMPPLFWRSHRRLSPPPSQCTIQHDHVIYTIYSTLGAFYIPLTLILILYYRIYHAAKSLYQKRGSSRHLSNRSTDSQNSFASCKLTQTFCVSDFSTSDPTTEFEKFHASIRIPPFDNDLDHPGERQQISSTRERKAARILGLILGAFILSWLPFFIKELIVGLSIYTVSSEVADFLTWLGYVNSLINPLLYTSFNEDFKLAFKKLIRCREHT
T5 sequence (P35367 whole entry): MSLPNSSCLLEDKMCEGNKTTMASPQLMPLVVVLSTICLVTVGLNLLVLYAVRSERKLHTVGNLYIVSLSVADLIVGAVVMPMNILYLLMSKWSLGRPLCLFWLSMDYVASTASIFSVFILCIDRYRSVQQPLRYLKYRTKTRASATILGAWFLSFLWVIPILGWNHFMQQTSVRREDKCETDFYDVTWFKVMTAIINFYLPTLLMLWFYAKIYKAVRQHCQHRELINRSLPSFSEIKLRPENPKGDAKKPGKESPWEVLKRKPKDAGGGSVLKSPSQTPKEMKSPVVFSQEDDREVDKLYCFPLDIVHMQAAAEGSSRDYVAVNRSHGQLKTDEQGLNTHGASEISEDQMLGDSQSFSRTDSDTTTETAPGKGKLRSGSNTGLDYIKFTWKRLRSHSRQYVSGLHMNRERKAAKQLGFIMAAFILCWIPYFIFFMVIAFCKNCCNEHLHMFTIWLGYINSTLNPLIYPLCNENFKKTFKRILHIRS

## CN1CCC(c2c[nH]c3ccc(O)cc23)CC1 [BRL 54443, reference compound]
Human 5-HT1E receptor; [8]
  pEC50: 6.7
Human 5-HT1E receptor; [9]
  Eff (%): 100%
Human 5-HT1F receptor; [8]
  pEC50: 6.8
Human 5-HT1F receptor; [9]
  Eff (%): 100%

## CCCN[C@H]1CCc2nc(N)sc2C1 [Pramipexole, (6S)—N^6-propyl-4,5,6,7-tetrahydro-1,3-benzothiazole-2,6-diamine]
Human 5-HT2A receptors [1]
  R-SAT Eff(%): 48 ± 9%
D2 receptors [2]
  R-SAT Eff(%): 84 ± 9%
D2 receptors [3]
  GTPγS Eff %: 87 ± 6%
Human 5-HT2A receptors [4]
  BRET2 Eff %: 52 ± 3%
D2 receptors [5]
  BRET2 Eff %: 104 ± 1%
  agonist profile in BRET2 assays at D2 receptors: full agonist

## CCCN1CCCC(c2cccc(O)c2)C1 (single isomer, unassigned; (+)) [(+)-3-PPP, [3-(3-hydroxyphenyl)-N-n-propyl]piperidine]
Human 5-HT2A receptors [6]; negative logarithm of EC50 in molar (M), HEK 293T cells, read-out: PI Hydrolysis pEC50 (converted)
  EC50: > 1e-05 M
Human 5-HT2A receptors [6]; percent response of reference ligand 5-HT
  PI Hydrolysis Eff (%): 17 — %
Human 5-HT2A receptors [1]
  R-SAT Eff(%): 87 ± 26%
Human 5-HT2A receptors [1]; Table 1, negative logarithm of EC50 in molar (M), NIH3T3 cells, mean ± SEM, read-out: R-SAT pEC50 (converted)
  EC50: 6.31e-06 M
D2 receptors [2]; Table 2, percent response of reference ligand pergolide, mean ± SEM
  R-SAT Eff(%): 101 ± 8%
D2 receptors [3]
  agonist profile in GTPγS binding assays at D2 receptors: full agonist
D2 receptors [3]; [10]
  GTPγS Eff %: 102 ± 4%
Human 5-HT2A receptors [4]; negative logarithm of EC50 in molar (M), HEK 293T cells, mean ± SEM, read-out: BRET2 pEC50 (converted)
  EC50: > 0.0001 M
Human 5-HT2A receptors [4]; percent response of reference ligand 5-HT, mean ± SEM
  BRET2 Eff %: 42 ± 5%
D2 receptors [5]
  agonist profile in BRET2 assays at D2 receptors: partial agonists
D2 receptors [5]; [10]
  BRET2 Eff %: 58 ± 2%

## CCN1CCC[C@H]1CNC(=O)c1c(O)c(Cl)cc(Cl)c1OC [raclopride]
[7]
  antagonism of motor stimulation induced by (+)-OSU6162 250 μmol/kg ip: None of the dopaminergic antagonists, i e SCH23390 (0.3 mg/kg), raclopride (20 mg/kg) or haloperidol (1 mg/kg), could antagonize
  antagonism of motor stimulation induced by (−)-OSU6162 250 μmol/kg ip: could not antagonize

## CN1CCc2cc(Cl)c(O)cc2[C@H]2c3ccccc3CC[C@@H]21 [SCH39166]
[7]
  antagonism of motor stimulation induced by (+)-OSU6162 250 μmol/kg ip: did not significantly influence the motor activation
  antagonism of motor stimulation induced by (−)-OSU6162 250 μmol/kg ip: did not significantly influence the motor activation

## COc1cc(CC(C)N)c(OC)cc1I.Cl (racemic) [DOI, (±)-1-(2,5-dimethoxy-4-iodophenyl)-2-aminopropane hydrochloride, reference compound]
Drug naive mice
  head twitches produced during 5 minutes: induces head twitches in the mouse
[7]; reserpine 10 mg/kg ip 20 h prior, test drug ip just prior to recording, first 30 minutes, vs reserpine only group
  motor activity (distance moved, DM 1.5): able to induce locomotor stimulation in reserpine-pretreated mice

## NCCc1c[nH]cn1 [Histamine, reference compound]
Human H1 receptor
  Eff (%): 100%
